From patent US20030134859A1 (SANKYO COMPANY, LIMITED, priority 2000, published 2003)

Tests used:
[1] = system: human colon cancer cells COL-2-JCK; experiment: Inhibition of colony forming activity in human colon cancer cells; format: cell-based; details: Homo sapiens, 240 h; 1 μM test compound; 10 days; sum of colony areas vs control; read-out: Inhibition Rate (%) against the colony forming activity
Summary of the method: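 COL-2-JCK cells seeded at 300 cells/well and grown 10 days at 37 °C, 5% CO2 with compound at 1 μM final (0.1% DMSO). Colonies stained with crystal violet in formalin; inhibition % = (1 − treated/control colony area)×100.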

[2] = system: Mouse preadipocyte strain 3T3-L1; experiment: Inhibition of differentiation as an indication of acetic acid uptake; format: cell-based; details: Mus musculus, 3T3-L1, 0.1 μM test substance, control (0.01% dimethylsulfoxide) = 100%, read-out: Rate of Uptake (%) of [2-14C] acetic acid
Summary of the method: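 Confluent 3T3-L1 cells induced to differentiate for 4 days (insulin, IBMX, dexamethasone, 5% FBS) with test compound at 0.1 μM final or 0.01% DMSO, then 2 days in insulin maintenance medium, at 37 °C, 10% CO2. [2-14C]acetic acid uptake over 1 hr counted by scintillation; expressed as % of DMSO control.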

Compound: Cc1csc(NC(=O)c2cc([N+](=O)[O-])ccc2Cl)n1 [Example 3, N-(4-Methylthiazol-2-yl)-(2-chloro-5-nitrophenyl)carboxamide]
- inhibition at 1 µM [1]: 27%
- activity at 0.1 µM [2]: 68.9%

Compound: O=C(Nc1nc2ccc(Cc3ccc(F)cc3)cc2s1)c1cc([N+](=O)[O-])ccc1Cl [Example 90, N-[6-(4-Fluorobenzyl)benzothiazol-2-yl]-(2-chloro-5-nitrophenyl)carboxamide]
- inhibition at 1 µM [1]: 47%
- activity at 0.1 µM [2]: 60.5%
